In patent publication EP0654028B1, “3- AND 5-SUBSTITUTED 1,2,3,4-OXATRIAZOLE-5-IMINE COMPOUNDS, A PROCESS FOR THE PREPARATION THEREOF, A PHARMACEUTICAL PREPARATION CONTAINING SAID COMPOUNDS AND THE USE OF SAID COMPOUNDS FOR THE PREPARATION OF MEDICAMENTS” (A/S GEA Farmaceutisk Fabrik, priority 1992, dated 1994):
Like-named read-outs stand apart in the source and are kept apart here.

System: blood platelets (thrombocytes)
Assay: Inhibition of ADP-induced blood platelet aggregation in platelet-rich plasma (aggregometer measurement, Born)
Type: cell-based, healthy testees
Conditions: for IC50: read-out: IC₅₀
[1] = PRP from citrate stabilized venous blood, 37°C, test substance incubated three minutes, ADP 2 to 4 µM as pro-aggregating substance, linear regression

Cc1c(Cl)cccc1-[n+]1noc([N-]S(=O)(=O)C[C@]23CCC(CC2=O)C3(C)C)n1 [Example 4, 3-(3-chloro-2-methylphenyl)-1,2,3,4-oxatriazole-5-(N-(1S)-(+)-10-camphorylsulphamoyl)imine]
IC50 [1]: 0.08 µM

Cc1c(Cl)cccc1-[n+]1noc([N-]C(=O)NS(=O)(=O)c2ccccc2)n1 [Example 1, 3-(3-chloro-2-methylphenyl)-1,2,3,4-oxatriazole-5-(N-phenylsulphonylcarbamoyl) imine]
IC50 [1]: 0.49 µM

COC(=O)C(C)NC(=O)[N-]c1n[n+](-c2cccc(Cl)c2C)no1 (stereo not shown) [Example 10, 3-(3-chloro-2-methylpheny1)-1,2,3,4-oxatriazole-5-(N-2-carbamoylpropionic acid methyl ester)imine]
IC50 [1]: 2.31 µM

CCOC(=O)C(Cc1ccccc1)NC(=O)[N-]c1n[n+](-c2cccc(Cl)c2C)no1 (stereo not shown) [Example 9, 3-(3-chloro-2-methylphenyl)-1,2,3,4-oxatriazole-5(N-2-carbamoyl-3-phenylpropionic acid ethyl ester)imine]
IC50 [1]: 7.9 µM

CCOC(=O)c1ccc(NC(=O)[N-]c2n[n+](-c3cccc(Cl)c3C)no2)cc1 [Example 5, 3-(3-chloro-2-methylphenyl)-1,2,3,4-oxatriazole-5-(N-4-carbethoxyphenylcarbamoyl)imine]
IC50 [1]: 2.98 µM

CC(=O)Nc1nc(C)c(S(=O)(=O)[N-]c2n[n+](-c3cccc(Cl)c3C)no2)s1 [Example 2, 3-(3-chloro-2-methylphenyl)-1,2,3,4-oxatriazole-5-(N-2-acetamido-4-methyl-5-thiazolesulphamoyl)imine]
IC50 [1]: 0.37 µM

CCOC(=O)CNC(=O)[N-]c1n[n+](-c2cccc(Cl)c2C)no1 [Example 8, 3-(3-chloro-2-methylphenyl)-1,2,3,4-oxatriazole-5-(N-carbethoxymethylcarbamoyl)imine]
IC50 [1]: 7.6 µM

O=[N+]([O-])OCC(CO[N+](=O)[O-])O[N+](=O)[O-] [GTN, nitroglycerine, reference compound]
inhibition of blood platelet aggregation (result in words): inactive
IC50: 100 µM

COc1ccc(S(=O)(=O)NC(=O)[N-]c2n[n+](-c3cccc(Cl)c3C)no2)cc1 [Example 6, 3-(3-chloro-2-methylphenyl)-1,2,3,4-oxatriazole-5-(N-4-methoxy-phenylsulphonylcarbamoyl)imine]
IC50: 0.67 µM

CC(=O)Nc1ccc(S(=O)(=O)[N-]c2n[n+](-c3cccc(Cl)c3C)no2)cc1 [Example 3, 3-(3-chloro-2-methylphenyl)-1,2,3,4-oxatriazole-5-(N-4-acetylaminophenylsulphamoyl)imine]
IC50 [1]: 1.01 µM

[NH-]c1c[n+](N2CCOCC2)no1 [SIN-1, reference compound]
IC50 [1]: 3.9 µM

CCOC(=O)NC(=O)[N-]c1n[n+](-c2cccc(Cl)c2C)no1 [Example 7, 3-(3-chloro-2-methylphenyl)-1,2,3,4-oxatriazole-5-(N-carbethoxy-carbamoyl)imine]
IC50 [1]: 0.16 µM
